Experiment [1] is described as follows: P. falciparum late gametocyte killing, dose response, luminescence (AID 1117278).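 Also: gametocytes exposed to compound for 24 hours.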 The format is functional, cell-based.
Experiment [2] in a line: Jurkat T cell cytotoxicity, dose response, cytotoxicity control for P. falciparum gametocyte viability project, luminescence (AID 1117277).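 Also: potency reflects loss of cellular ATP meaning fewer viable cells.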 It counts as functional, cell-based.
The next experiment deals with T1, Estrogen receptor (Homo sapiens, UniProt P03372).
T1 sequence (P03372 whole entry): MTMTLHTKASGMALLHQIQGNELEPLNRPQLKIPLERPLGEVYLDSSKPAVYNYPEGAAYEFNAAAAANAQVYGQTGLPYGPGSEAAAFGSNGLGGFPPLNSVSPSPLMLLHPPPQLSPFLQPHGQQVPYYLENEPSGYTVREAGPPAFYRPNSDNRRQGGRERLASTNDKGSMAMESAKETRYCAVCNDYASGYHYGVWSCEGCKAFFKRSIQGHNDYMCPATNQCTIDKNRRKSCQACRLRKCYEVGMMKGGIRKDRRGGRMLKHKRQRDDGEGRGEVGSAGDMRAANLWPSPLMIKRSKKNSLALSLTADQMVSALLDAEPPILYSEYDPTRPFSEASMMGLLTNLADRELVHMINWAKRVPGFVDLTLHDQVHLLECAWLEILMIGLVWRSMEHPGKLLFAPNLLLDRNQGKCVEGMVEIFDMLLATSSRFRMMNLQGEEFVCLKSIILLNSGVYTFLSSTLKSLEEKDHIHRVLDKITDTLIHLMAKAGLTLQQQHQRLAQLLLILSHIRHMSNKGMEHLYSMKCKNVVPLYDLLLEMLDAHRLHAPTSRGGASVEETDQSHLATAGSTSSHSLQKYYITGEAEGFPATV

Another experiment deals with T2, Protein Tat (Human immunodeficiency virus type 1 group M subtype B (isolate HXB2)(HIV-1), UniProt P04608).
T2 sequence (P04608 whole entry): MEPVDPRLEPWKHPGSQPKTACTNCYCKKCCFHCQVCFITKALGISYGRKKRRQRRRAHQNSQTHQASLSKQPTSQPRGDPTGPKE
It counts as functional.

Experiment [3] in a line: growth suppression of beta-catenin-knockout colon cells, dose response, cell-based, HCT116, human colon tumor (AID 1045).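 Also: HCT116 colon tumor cells with beta catenin knocked out; cells exposed to compound for 60 hours.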 It counts as functional.
A short description of experiment [4]: growth suppression of PTEN-null colon cells, dose response, cell-based, HCT116 PTEN knockout (AID 1047).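 Also: HCT116 colon tumor cells with PTEN knocked out; cells exposed to compound for 60 hours before readout; potency for loss of cell viability measured by luminescence.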 The format is functional.
The target in another experiment is T3, fMet-Leu-Phe receptor (Homo sapiens, UniProt P21462).
T3 sequence (P21462 whole entry): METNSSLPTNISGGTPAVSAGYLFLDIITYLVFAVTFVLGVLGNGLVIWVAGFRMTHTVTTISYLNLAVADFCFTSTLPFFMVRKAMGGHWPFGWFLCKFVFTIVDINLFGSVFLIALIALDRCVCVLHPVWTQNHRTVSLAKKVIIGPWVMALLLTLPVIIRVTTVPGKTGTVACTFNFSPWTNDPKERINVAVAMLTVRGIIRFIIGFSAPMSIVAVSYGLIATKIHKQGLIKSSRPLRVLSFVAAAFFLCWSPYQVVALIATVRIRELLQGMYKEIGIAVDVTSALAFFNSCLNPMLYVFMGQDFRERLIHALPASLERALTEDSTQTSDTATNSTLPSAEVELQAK
Description: FPR ligands, dose response (AID 519). The format is functional.

In experiment [5] the target is T4, Zinc finger protein mex-5 (Caenorhabditis elegans, UniProt Q9XUB2).
T4 sequence (Q9XUB2 whole entry): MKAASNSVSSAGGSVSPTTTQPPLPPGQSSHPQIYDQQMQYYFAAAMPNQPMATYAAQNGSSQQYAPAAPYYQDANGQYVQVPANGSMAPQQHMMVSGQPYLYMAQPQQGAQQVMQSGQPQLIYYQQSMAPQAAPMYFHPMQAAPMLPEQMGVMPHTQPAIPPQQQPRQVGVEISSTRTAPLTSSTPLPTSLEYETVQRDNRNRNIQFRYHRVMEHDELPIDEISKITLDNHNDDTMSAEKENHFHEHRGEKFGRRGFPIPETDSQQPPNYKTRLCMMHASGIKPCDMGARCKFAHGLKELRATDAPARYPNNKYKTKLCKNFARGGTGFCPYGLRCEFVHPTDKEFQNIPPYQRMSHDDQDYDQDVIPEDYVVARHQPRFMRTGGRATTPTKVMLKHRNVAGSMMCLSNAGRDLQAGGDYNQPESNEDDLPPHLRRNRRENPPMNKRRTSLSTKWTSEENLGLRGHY
Description: MEX-5/TCR-2 RNA interaction inhibitors, dose response, biochemical, C. elegans, fluorescence polarization (AID 1960). A general note: Fluorescence polarisation rises when a labelled molecule tumbles more slowly, as on binding a larger partner.

The target of experiment [6] is T5, RNA-binding protein pos-1 (Caenorhabditis elegans, UniProt G5EF15).
T5 sequence (G5EF15 whole entry): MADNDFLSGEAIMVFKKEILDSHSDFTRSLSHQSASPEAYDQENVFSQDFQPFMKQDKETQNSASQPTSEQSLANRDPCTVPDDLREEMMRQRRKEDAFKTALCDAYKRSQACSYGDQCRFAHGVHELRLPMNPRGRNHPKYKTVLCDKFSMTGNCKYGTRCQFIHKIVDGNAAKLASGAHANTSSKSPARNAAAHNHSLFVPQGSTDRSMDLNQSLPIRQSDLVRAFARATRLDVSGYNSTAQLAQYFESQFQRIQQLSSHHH
Briefly: inhibitors of POS-1/mex-3 RNA binding, dose response, biochemical, fluorescence polarization (AID 1964).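 Also: purified POS-1 fused to maltose binding protein made in E. coli; potency of compounds blocking POS-1 binding to fluorescent RNA.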

Another experiment concerns the target T6, Leucine aminopeptidase (Plasmodium falciparum 3D7, UniProt Q8IL11).
T6 sequence (Q8IL11 whole entry): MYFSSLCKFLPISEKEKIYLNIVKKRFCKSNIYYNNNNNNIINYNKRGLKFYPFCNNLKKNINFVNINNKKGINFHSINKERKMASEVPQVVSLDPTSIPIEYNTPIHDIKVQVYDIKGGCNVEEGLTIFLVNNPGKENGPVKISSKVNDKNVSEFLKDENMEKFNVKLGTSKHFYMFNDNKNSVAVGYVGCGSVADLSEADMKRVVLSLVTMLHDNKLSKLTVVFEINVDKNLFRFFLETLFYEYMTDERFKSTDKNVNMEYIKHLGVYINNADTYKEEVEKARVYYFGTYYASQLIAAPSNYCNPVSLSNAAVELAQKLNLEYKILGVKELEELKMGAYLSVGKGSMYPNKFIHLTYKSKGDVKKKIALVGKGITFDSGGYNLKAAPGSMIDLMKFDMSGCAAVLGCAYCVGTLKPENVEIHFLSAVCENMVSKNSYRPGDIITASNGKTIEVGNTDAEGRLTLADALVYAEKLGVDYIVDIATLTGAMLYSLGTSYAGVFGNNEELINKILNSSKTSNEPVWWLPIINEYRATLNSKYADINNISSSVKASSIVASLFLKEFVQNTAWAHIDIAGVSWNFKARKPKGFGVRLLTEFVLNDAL
Briefly: P. falciparum M17LAP inhibitors, primary screen, biochemical, fluorogenic H-Leu-NHMec substrate, 1536-well (AID 1619). It counts as functional.

The target of experiment [7] is T7, Mannose-6-phosphate isomerase (Homo sapiens, UniProt P34949).
T7 sequence (P34949 whole entry): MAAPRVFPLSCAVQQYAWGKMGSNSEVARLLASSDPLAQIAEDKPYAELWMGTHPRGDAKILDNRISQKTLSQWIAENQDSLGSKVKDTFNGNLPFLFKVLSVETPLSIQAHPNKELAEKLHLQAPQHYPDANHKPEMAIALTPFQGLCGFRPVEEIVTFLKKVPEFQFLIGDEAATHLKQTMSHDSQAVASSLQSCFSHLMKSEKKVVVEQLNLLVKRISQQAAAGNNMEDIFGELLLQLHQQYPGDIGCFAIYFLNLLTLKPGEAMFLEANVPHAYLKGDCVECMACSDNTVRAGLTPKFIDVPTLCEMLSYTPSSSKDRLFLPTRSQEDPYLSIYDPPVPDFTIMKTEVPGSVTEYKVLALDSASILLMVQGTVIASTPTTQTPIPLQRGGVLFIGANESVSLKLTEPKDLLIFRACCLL
Description: inhibitors of human PMI, primary screen, biochemical, fluorescence intensity, coupled assay (AID 1209).

For a further experiment, the target named is Cytochrome P450 2C9 (Homo sapiens, UniProt P11712).
Experiment [8] is described as follows: P. falciparum Dd2 growth inhibitors, dose response, SYBR Green, dry powder samples (AID 1159566).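 Also: potency for growth inhibition with lower SYBR green DNA signal.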 It counts as functional, cell-based.
The nature of experiment [9]: P. falciparum Dd2 growth inhibitors, dose response, SYBR Green, cherry-picked samples (AID 1159567). It counts as functional, cell-based.
Experiment [10] in a line: HepG2 cell cytotoxicity, dose response, cytotoxicity control, plate reader, dry powder samples (AID 1159569).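 Also: inhibitor potency with signal falling toward the positive control level.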 The format is functional, cell-based.
Experiment [11] in a line: P. falciparum ATP4 D1247Y mutant growth inhibitors, dose response, NITD609-resistant line, SYBR Green, dry powder (AID 1159571).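 Also: parasites synchronized at ring stage by sorbitol before testing.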 It counts as functional, cell-based.
Experiment [12] can be described thus: P. falciparum 3D7-ScDHODH growth inhibitors, dose response, SYBR Green, dry powder samples (AID 1159570).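 Also: parasite growth measured after 72 hours of compound exposure.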 It counts as functional, cell-based.

The source made the active and inactive calls.

Chain of Cytochrome P450 2C9 (P11712 whole entry): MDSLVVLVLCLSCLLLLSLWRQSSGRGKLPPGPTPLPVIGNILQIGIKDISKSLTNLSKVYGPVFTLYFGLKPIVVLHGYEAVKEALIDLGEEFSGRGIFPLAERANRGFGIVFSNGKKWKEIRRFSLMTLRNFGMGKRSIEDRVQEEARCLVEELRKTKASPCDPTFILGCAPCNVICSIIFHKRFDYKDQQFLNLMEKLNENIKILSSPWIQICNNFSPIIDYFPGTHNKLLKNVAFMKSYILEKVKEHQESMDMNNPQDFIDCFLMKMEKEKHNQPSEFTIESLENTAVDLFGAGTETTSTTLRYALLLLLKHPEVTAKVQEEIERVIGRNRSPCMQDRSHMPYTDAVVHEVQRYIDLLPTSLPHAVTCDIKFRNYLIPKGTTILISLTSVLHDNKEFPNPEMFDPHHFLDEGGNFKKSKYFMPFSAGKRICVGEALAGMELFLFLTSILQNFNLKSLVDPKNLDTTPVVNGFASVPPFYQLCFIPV

In the case of `O=C(CSc1nnc(-c2ccc(F)cc2)o1)NC1CCCCC1`, the values for the IC50 in [1] and in [2] were > 109 µM (inactive) and > 83.3 µM (inactive), respectively.

For the compound `Cc1nn(Cc2ccccc2)c(C)c1NC(=O)CSc1nnc(-c2cc(Cl)ccc2O)n1C`, the IC50 against Estrogen receptor is reported as > 50 µM (not active).

Consider `CCc1ccc(CC)c(S(=O)(=O)Nc2ccc(C(=O)O)c(O)c2)c1`, for which, on Protein Tat, the IC50 is > 100 µM (active).

As to `Cc1cccc(N2CCN(c3nc4ccccc4n4cnnc34)CC2)c1C`, the EC50 is 25.4 µM (active) in [3] and 23.4 µM (active) in experiment [4]. The IC50 against Estrogen receptor is given as 38.8 µM (not active).

As to `C=CCCC(=O)Nc1ccc(Br)cn1`, the IC50 in experiment [1] was > 109 µM (inactive); in [2], > 83.3 µM (inactive).

`O=C(NCCCN1CCN(c2ccc(F)cc2)CC1)c1cccc(N2CCCC2=O)c1`: the Ki at fMet-Leu-Phe receptor was > 66.7 µM (inactive).

Turning to `O=C1C2CC=C(Cl)CC2C(=O)N1CCCCCCN1C(=O)C2CC=C(Cl)CC2C1=O` (centres undefined), the EC50 is 12.2 µM (active) in [5] and 14.4 µM (active) in experiment [6]. Besides, the half-maximal inhibitory concentration (IC50) on Leucine aminopeptidase was 37.2 µM (active); at Estrogen receptor, 24.7 µM (active).

As for `N#C/C(=C\c1cccnc1)C(=O)Nc1ccccc1`, in [7], the IC50 was > 50 µM (not active).

Turning to `O=S1(=O)OCCC(c2ccccc2)N1Cc1ccccc1` (centres undefined), the IC50 was > 109 µM (inactive) in experiment [1] and > 83.3 µM (inactive) in experiment [2].

Consider `COc1ccc(-c2nc3oc4cc(OC)ccc4c(=O)c3c(=O)n2Cc2ccco2)cc1`, for which the half-maximal inhibitory concentration (IC50) on Protein Tat was > 100 µM (active).

Consider `CCc1ccc(N2C(=O)CC(Cn3nc(C)cc3C)C2=O)cc1` (centres undefined), for which the IC50 in [1] is > 109 µM (inactive); in experiment [2], > 83.3 µM (inactive).

On to `CCC(CC)C(=O)/N=c1\c2cnn(-c3ccccc3)c2[nH]c(=O)n1-c1ccccc1`, for which the AC50 on Cytochrome P450 2C9 is 28.2 µM (inconclusive). For the same compound, at fMet-Leu-Phe receptor, the Ki is 49.8 µM (inactive).

As to `CC1(C)CC(=O)C(/C=N/c2ccc3[nH]ncc3c2)=C(O)C1`, in experiment [7], the IC50 was > 50 µM (not active).

Take `Cc1ccc(/C=N/n2c(S)nnc2-c2ccncc2)cc1`: the IC50 in experiment [7] is 18.3 µM (active).

Regarding `CC(C)CC#Cc1ccc([C@H]2[C@@H](CO)N3C(=O)CN(C(=O)Cc4ccccc4)C[C@H]23)cc1`, the half-maximal activity concentration (AC50) in experiment [8] is 0.836 µM (active); in experiment [9], 0.424 µM (active); in experiment [10], 26.3 µM (active); in experiment [11], 1.09 µM (active); in experiment [12], 2.02 µM (active).

In the case of `CO[C@@H]1CN(C)C(=O)c2cc(NC(=O)c3ccccc3F)ccc2OC[C@H](C)N(C(=O)c2ccccc2F)C[C@@H]1C`, the AC50 was 1.1 µM (active) in [8]; 2.47 µM (active) in experiment [9]; > 100 µM (inactive) in experiment [10]; 1.64 µM (active) in experiment [11]; 2.87 µM (active) in experiment [12].

Turning to `O=S(=O)(c1ccccc1)N1C[C@@H]2N[C@H](C1)[C@H]2c1ccc(-c2ccc(F)cc2)cc1`, the AC50 in [8] was 1.47 µM (active); in [9], 1.54 µM (active); in [10] it was 14.3 µM (active); in experiment [11] it was 1.85 µM (active); in [12] it was 1.27 µM (active).

Turning to `Cc1ccccc1S(=O)(=O)N1CC(=O)N2[C@H](CO)[C@H](c3ccc(C#CCC4CCCC4)cc3)[C@H]2C1`, the AC50 is 0.411 µM (active) in experiment [8]; 1.9 µM (active) in experiment [9]; 26.5 µM (active) in experiment [10]; 1.42 µM (active) in [11]; 1.2 µM (active) in [12].

As a reminder, the IC50 is the concentration at which inhibition is half-maximal. By EC50 is commonly meant the concentration at which the effect is half-maximal. The Ki is a measure of affinity in units of concentration, obtained from inhibition or displacement. Broadly, the AC50 is the concentration at which the activity in the assay is half-maximal.
